Results on 4 molecules are retold here after ChEMBL document CHEMBL1201862, “PubChem BioAssay data set” (2004).

Among the test systems are HL-60; SF-539; NCI-H522; CCRF-CEM; KM12; HCT-116; HOP-62; UO-31; SW-620; SK-MEL-28; OVCAR-5; NCI-H226; SK-MEL-2; K562; HT-29; A549; RPMI-8226; SK-MEL-5; ACHN; OVCAR-4.
Assay in all cases: NCI tumour cell line growth inhibition, 48 h

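Briefly, cells in 96-well plates were exposed to five compound concentrations for 48 h, and endpoints were estimated by linear interpolation. The concentration for 50% growth inhibition is given as GI50.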 Activity calls are given as the source filed them. No stated cut-off is given here; in the data, active = GI50 up to about 1.1 µM and inactive = higher.

Turning to `C=C1C(O)C2(O)OCC34C(CC5C(C)=CC(=O)C(O)C5(C)C23)OC(=O)C(OC(=O)C/C=C/CCCCCCCC)C14` (centres undefined), the GI50 with HL-60 is 0.02 µM (active); in the experiment on SF-539 it was 0.0208 µM (active); in the experiment on NCI-H522, 0.02 µM (active); in the experiment on CCRF-CEM, 0.02 µM (active); in the experiment with KM12, 0.0294 µM (active); with HCT-116, 0.02 µM (active). For the same molecule, the GI50 in the experiment on HOP-62 was 0.0233 µM (active); in the experiment on UO-31, 0.0452 µM (active); in the experiment with SW-620, 0.0217 µM (active); in the experiment with SK-MEL-28 it was 0.02 µM (active); with OVCAR-5, 0.112 µM (active); in the experiment on NCI-H226 it was 0.02 µM (active). Moreover, the GI50 was 0.0241 µM (active) in the experiment with SK-MEL-2; 0.02 µM (active) in the experiment on K562; 0.0226 µM (active) in the experiment with HT-29; 0.0249 µM (active) with A549; 0.02 µM (active) in the experiment on RPMI-8226.

Take `CN(C)CN(C)c1nc(N(C)C)nc(N(C)CN(C)C)n1`: the GI50 is 51.1 µM (inactive) in the experiment on SK-MEL-5; 17 µM (inactive) in the experiment on HL-60; 50.4 µM (inactive) in the experiment on SF-539; > 100 µM (inactive) with NCI-H522; 25.7 µM (inactive) in the experiment on CCRF-CEM; > 100 µM (inactive) in the experiment on KM12. Besides, the GI50 in the experiment with HCT-116 was 32 µM (inactive); with HOP-62 it was > 100 µM (inactive); with UO-31, > 100 µM (inactive); with ACHN, 45.4 µM (inactive); in the experiment on SW-620 it was 23.9 µM (inactive); with SK-MEL-28, 25.8 µM (inactive). Moreover, the GI50 in the experiment with OVCAR-4 was 42.4 µM (inactive); with NCI-H226, > 100 µM (inactive); in the experiment on SK-MEL-2 it was 20.9 µM (inactive); in the experiment with K562, 30.8 µM (inactive); with HT-29, 57.8 µM (inactive); in the experiment on A549, > 100 µM (inactive). In the experiment on RPMI-8226, the GI50 is 27.2 µM (inactive).

Take `CC(C)(C)c1ccc2c(c1)OP1(Oc3cccc4cccnc34)(O2)Oc2ccc(C(C)(C)C)cc2O1`: the GI50 in the experiment with SK-MEL-5 is 3.27 µM (inactive); in the experiment on HL-60, 1.76 µM (inactive); with SF-539, 10.4 µM (inactive); in the experiment with NCI-H522, 4.9 µM (inactive); in the experiment with CCRF-CEM it was 0.701 µM (active); with KM12 it was 6.73 µM (inactive). Also, the GI50 was 3.13 µM (inactive) in the experiment with HCT-116; 22.8 µM (inactive) in the experiment with HOP-62; 4.42 µM (inactive) in the experiment with UO-31; 2.25 µM (inactive) with SW-620; 15.7 µM (inactive) in the experiment on SK-MEL-28; 4.17 µM (inactive) in the experiment on OVCAR-5. The GI50 in the experiment with OVCAR-4 was 2.48 µM (inactive); in the experiment with NCI-H226 it was 8.49 µM (inactive); in the experiment on SK-MEL-2, 7.85 µM (inactive); in the experiment on K562, 2.43 µM (inactive); with HT-29, 3.89 µM (inactive); in the experiment on A549 it was 5.58 µM (inactive). Further, in the experiment on RPMI-8226, the GI50 is 0.597 µM (active).

Consider `CSc1nc(NC2OCC(O)C(O)C2O)c(N)c(=O)n1C` (centres undefined), for which the GI50 in the experiment on SK-MEL-5 was > 100 µM (inactive); in the experiment on HL-60, > 100 µM (inactive); in the experiment with SF-539, 75.2 µM (inactive); in the experiment on NCI-H522, > 100 µM (inactive); with CCRF-CEM, > 100 µM (inactive); with KM12, > 100 µM (inactive). Moreover, the GI50 with HCT-116 is > 100 µM (inactive); in the experiment on HOP-62, > 100 µM (inactive); in the experiment with UO-31, > 85.5 µM (inactive); in the experiment with SW-620, > 100 µM (inactive); in the experiment with SK-MEL-28, > 100 µM (inactive); with OVCAR-5, > 100 µM (inactive). Also, the GI50 in the experiment on OVCAR-4, with NCI-H226, with SK-MEL-2, in the experiment on K562, in the experiment with HT-29 and in the experiment on A549 was > 100 µM (inactive) each time. Also, in the experiment with RPMI-8226, the GI50 was > 100 µM (inactive).
